Measurements: patent publication US20240148821A1, “PHARMACEUTICAL USE OF CYCLIC PEPTIDE COMPOUND” (CHUGAI SEIYAKU KABUSHIKI KAISHA, priority 2021, published 2024)
pIC50: −log10 of the molar value. Numbered stars: 1 amine (or outer) side, 2 acyl side, 3 side chain; on linkers, the order of the positions; unused ones are H or OH. Bridge positions count the residues as written; N and C are the ends. Square brackets hold non-standard residues; d marks the D form. Peptide text beside a SMILES is read from it. * marks the point of attachment. hPhe(3-Cl-4-CF3) = N[C@@H](CCc1ccc(C(F)(F)F)c(Cl)c1)C(=O)O; hPhe(3-F,4-CF3) = N[C@@H](CCc1ccc(C(F)(F)F)c(F)c1)C(=O)O; NMePhe(4-CF3) = CN[C@@H](Cc1ccc(C(F)(F)F)cc1)C(=O)O; X22 = O=C([C@H](CCc1ccc(C(F)F)nc1)N[*:1])[*:2]; NEtPhe(4-Me) = CCN[C@@H](Cc1ccc(C)cc1)C(=O)O; NMePhe(4-Cl) = CN[C@@H](Cc1ccc(Cl)cc1)C(=O)O; NMePhe(4-Me) = CN[C@@H](Cc1ccc(C)cc1)C(=O)O; NMedβ3hAla = C[C@H](CC(=O)[*:2])N(C)[*:1]; NMeGly(cPent) = CN[C@H](C(=O)O)C1CCCC1; NMeCha = CN[C@@H](CC1CCCCC1)C(=O)O; NMeGly(cPr) = CN[C@H](C(=O)O)C1CC1; NEtLeu = CCN[C@@H](CC(C)C)C(=O)O; NMeChg = CN[C@H](C(=O)O)C1CCCCC1; NMeI = CC[C@H](C)[C@H](NC)C(=O)O; NMeD = CN[C@@H](CC(=O)O)C(=O)O; NMeL = CN[C@@H](CC(C)C)C(=O)O; NMeV = CN[C@H](C(=O)O)C(C)C; d(β3hA) = C[C@@H](N)CC(=O)O; Azetidin(1-yl) = C1CN(*)C1; NMeS = CN[C@@H](CO)C(=O)O; Morpholide = C1CN(*)CCO1; NMeA = CN[C@@H](C)C(=O)O; NMeAib = CNC(C)(C)C(=O)O; Piperidide = C1CCN(*)CC1; Pyrrolidide = C1CCN(*)C1; Ac5c = NC1(C(=O)O)CCCC1; Aze = O=C(O)[C@@H]1CCN1; CH2CMe2OH = CC(C)(O)C*; Aib = CC(C)(N)C(=O)O; Isopentyl = CC(C)CC*; NEtG = CCNCC(=O)O; Sar = CNCC(=O)O

Experiments:
[1] = molecular target: protein-protein interaction between Kras and SOS1 (biotin-tagged human Kras loaded with GDP, His-tagged human SOS1) (Homo sapiens (Human), UniProt P01116, G12D); test: Protein-protein interaction inhibition between Kras and SOS1 (KrasG12D-SOS PPI) using AlphaScreen; format: biochemical; settings: AlphaScreen; biotin-tagged human Kras loaded with GDP, His-tagged human SOS1; read-out: KRAS G12D-SOS PPI IC50;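 note: kras produced in E. coli, Ni-coupled donor beads and streptavidin acceptor beads, excitation 680 nm with emission detected at 520–620 nm via singlet oxygen transfer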
[2] = system: Human pancreatic cancer cell line AsPC-1 (G12D mutation Kras); test: AsPC-1 cell growth inhibition (AsPC-1 CGI); format: cell-based; settings: read-out: AsPC-1 cell growth inhibition, 50% growth inhibitory concentration (IC50 value); 96 hours, CellTiter-Glo, values classified in ranges
Description: Test compounds were serially dilated with dimethyl sulfoxide, and 200 nL was then dispensed to a U-bottom 96-well plate using Labcyte Echo. […] The cell suspension was dispensed to a. plate containing a test compound at 100 μL per well and incubated at 37° C. in a 5% carbon dioxide gas incubator. 96 hours later, 80 μL of CellTiter-Glo (Promega) was added to each well and fluorescence was measured.

CC[C@H](C)[C@@H]1NC(=O)[C@H](CC(C)C)N(CC)C(=O)C[C@@H](C(=O)N2CCOCC2)N(C)C(=O)[C@H](C2CCCC2)N(C)C(=O)C2(CCCC2)NC(=O)[C@@H]2CCCN2C(=O)[C@H](CCc2ccc(C(F)(F)F)c(Cl)c2)NC(=O)CN(C)C(=O)[C@H](C2CCCC2)N(C)C(=O)[C@@H]2CCN2C(=O)[C@H](C)N(C)C1=O [Compound 1208] ([NEtLeu]I[NMeA][Aze][NMeGly(cPent)][Sar][hPhe(3-Cl-4-CF3)]P[Ac5c][NMeGly(cPent)][NMeD]-Morpholide; lactam N-11)
pIC50 [1]: 9.16 | pIC50 [2]: ≥ 7.70

CC[C@H](C)[C@@H]1NC(=O)[C@H](CC(C)C)N(C)C(=O)C[C@@H](C(=O)N2CCCC2)N(C)C(=O)[C@H]([C@@H](C)CC)N(C)C(=O)C2(CCCC2)NC(=O)[C@@H]2CCCN2C(=O)[C@H](CCc2ccc(C(F)(F)F)c(Cl)c2)NC(=O)CN(C)C(=O)[C@H](C2CCCC2)N(C)C(=O)[C@@H]2CCN2C(=O)[C@H](C)N(C)C1=O [Compound 799] ([NMeL]I[NMeA][Aze][NMeGly(cPent)][Sar][hPhe(3-Cl-4-CF3)]P[Ac5c][NMeI][NMeD]-Pyrrolidide; lactam N-11)
pIC50 [1]: 8.85 | pIC50 [2]: ≥ 7.70

CC[C@H](C)[C@@H]1NC(=O)[C@H](CC(C)C)N(C)C(=O)C[C@@H](C)N(C)C(=O)[C@H](C(C)C)N(C)C(=O)C2(CCCC2)NC(=O)[C@@H]2CCCN2C(=O)[C@H](CCc2ccc(C(F)(F)F)c(Cl)c2)NC(=O)CN(C)C(=O)[C@H](Cc2ccc(C)cc2)N(C)C(=O)[C@@H]2CCN2C(=O)[C@H](C)N(C)C1=O [Compound 1809] (cyclo([Ac5c][NMeV][NMedβ3hAla][NMeL]I[NMeA][Aze][NMePhe(4-Me)][Sar][hPhe(3-Cl-4-CF3)]P))
pIC50 [1]: 8.85 | pIC50 [2]: ≥ 7.70

CC[C@H](C)[C@@H]1NC(=O)[C@H](CC(C)C)N(C)C(=O)C[C@@H](C(=O)N2CCCC2)N(C)C(=O)[C@H](C2CCCC2)N(C)C(=O)C2(CCCC2)NC(=O)[C@@H]2CCCN2C(=O)[C@H](CCc2ccc(C(F)(F)F)c(F)c2)NC(=O)CN(C)C(=O)[C@H](Cc2ccc(C)cc2)N(C)C(=O)[C@@H]2CCN2C(=O)[C@H](C)N(C)C1=O [Compound 20] ([NMeL]I[NMeA][Aze][NMePhe(4-Me)][Sar][hPhe(3-F,4-CF3)]P[Ac5c][NMeGly(cPent)][NMeD]-Pyrrolidide; lactam N-11)
pIC50 [1]: 9.12 | pIC50 [2]: ≥ 7.70

CC[C@H](C)[C@@H]1NC(=O)[C@H](CC(C)C)N(C)C(=O)C[C@@H](C(=O)N2CCCCC2)N(C)C(=O)[C@H](C2CCCCC2)N(C)C(=O)C2(CCCC2)NC(=O)[C@H](C)NC(=O)[C@H](CCc2ccc(C(F)(F)F)c(Cl)c2)NC(=O)CN(C)C(=O)[C@H](CC2CCCCC2)N(C)C(=O)CN(C)C(=O)CN(C)C1=O [Compound 205] ([NMeL]I[Sar][Sar][NMeCha][Sar][hPhe(3-Cl-4-CF3)]A[Ac5c][NMeChg][NMeD]-Piperidide; lactam N-11)
pIC50 [1]: 9.31 | pIC50 [2]: < 6.30

CC[C@H](C)[C@@H]1NC(=O)[C@H](CC(C)C)N(C)C(=O)C[C@@H](C(=O)N2CCCCC2)N(C)C(=O)[C@H](C(C)C)N(C)C(=O)C2(CCCC2)NC(=O)[C@@H]2CCCN2C(=O)[C@H](CCc2ccc(C(F)(F)F)c(Cl)c2)NC(=O)CN(C)C(=O)[C@H](CC2CCCCC2)N(C)C(=O)[C@@H]2CCN2C(=O)[C@@H]2CCN2C1=O [Compound 318] ([NMeL]I[Aze][Aze][NMeCha][Sar][hPhe(3-Cl-4-CF3)]P[Ac5c][NMeV][NMeD]-Piperidide; lactam N-11)
pIC50 [1]: 7.72 | pIC50 [2]: < 6.30

CC[C@H](C)[C@@H]1NC(=O)[C@H](CC(C)C)N(C)C(=O)C[C@@H](C(=O)N2CCCCC2)N(C)C(=O)[C@H](C(C)C)N(C)C(=O)C2(CCCC2)NC(=O)[C@@H]2CCCN2C(=O)[C@H](CCc2ccc(C(F)(F)F)c(Cl)c2)NC(=O)CN(C)C(=O)[C@H](C)N(C)C(=O)[C@@H]2CCN2C(=O)[C@H](C)N(C)C1=O [Compound 1674] ([NMeL]I[NMeA][Aze][NMeA][Sar][hPhe(3-Cl-4-CF3)]P[Ac5c][NMeV][NMeD]-Piperidide; lactam N-11)
pIC50 [1]: 7.24 | pIC50 [2]: < 6.30

CC[C@H](C)[C@@H]1NC(=O)[C@H](CC(C)C)N(C)C(=O)C[C@@H](C)N(C)C(=O)[C@H](C(C)C)NC(=O)C(C)(C)N(C)C(=O)[C@H](CC(C)C)NC(=O)[C@H](CCc2ccc(C(F)(F)F)c(F)c2)NC(=O)CN(C)C(=O)[C@H](Cc2ccc(Cl)cc2)N(C)C(=O)CN(C)C(=O)CN(C)C1=O [Compound 1084] (cyclo(I[Sar][Sar][NMePhe(4-Cl)][Sar][hPhe(3-F,4-CF3)]L[NMeAib]V[NMedβ3hAla][NMeL]))
pIC50 [1]: 7.28 | pIC50 [2]: < 6.30

CC[C@H](C)[C@@H]1NC(=O)[C@H](CC(C)C)N(C)C(=O)C[C@@H](C(=O)N2CCCC2)N(C)C(=O)[C@H]([C@@H](C)CC)N(C)C(=O)C2(CCCC2)NC(=O)[C@@H]2CCCN2C(=O)[C@H](CCc2ccc(C(F)(F)F)c(Cl)c2)NC(=O)CN(C)C(=O)[C@H](Cc2ccc(C(F)(F)F)cc2)N(C)C(=O)[C@@H]2CCN2C(=O)[C@H](C)NC1=O [Compound 1360] ([NMeL]IA[Aze][NMePhe(4-CF3)][Sar][hPhe(3-Cl-4-CF3)]P[Ac5c][NMeI][NMeD]-Pyrrolidide; lactam N-11)
pIC50 [1]: 9.01 | pIC50 [2]: ≥ 7.70

CC[C@H](C)[C@@H]1NC(=O)[C@H](CC(C)C)N(C)C(=O)C[C@@H](C(=O)N2CCC2)N(C)C(=O)[C@H](C2CCCC2)N(C)C(=O)C2(CCCC2)NC(=O)[C@@H]2CCCN2C(=O)[C@H](CCc2ccc(C(F)(F)F)c(Cl)c2)NC(=O)CN(C)C(=O)[C@H](Cc2ccc(C)cc2)N(CC)C(=O)[C@@H]2CCN2C(=O)[C@H](C)N(C)C1=O [Compound 506] ([NMeL]I[NMeA][Aze][NEtPhe(4-Me)][Sar][hPhe(3-Cl-4-CF3)]P[Ac5c][NMeGly(cPent)][NMeD]-{Azetidin(1-yl)}; lactam N-11)
pIC50 [1]: 9.17 | pIC50 [2]: ≥ 7.70

CC[C@H](C)[C@@H]1NC(=O)[C@H](CC(C)C)N(C)C(=O)C[C@@H](C(=O)N2CCCCC2)N(C)C(=O)[C@H](C(C)C)N(C)C(=O)C2(CCCC2)NC(=O)[C@@H]2CCCN2C(=O)[C@H](CCc2ccc(C(F)(F)F)c(Cl)c2)NC(=O)CN(C)C(=O)[C@H](C2CC2)N(C)C(=O)[C@@H]2CCN2C(=O)[C@H](C)N(C)C1=O [Compound 1677] ([NMeL]I[NMeA][Aze][NMeGly(cPr)][Sar][hPhe(3-Cl-4-CF3)]P[Ac5c][NMeV][NMeD]-Piperidide; lactam N-11)
pIC50 [1]: 8.07 | pIC50 [2]: < 6.30

CC[C@H](C)[C@@H]1NC(=O)[C@H](CC(C)C)N(C)C(=O)C[C@@H](C(=O)N2CCOCC2)N(C)C(=O)[C@H]([C@@H](C)CC)N(C)C(=O)C2(CCCC2)NC(=O)[C@@H]2CCCN2C(=O)[C@H](CCc2ccc(C(F)(F)F)c(Cl)c2)NC(=O)CN(C)C(=O)[C@H](CC2CCCCC2)N(C)C(=O)[C@@H]2CCN2C(=O)[C@H](C)N(C)C1=O [Compound 40] ([NMeL]I[NMeA][Aze][NMeCha][Sar][hPhe(3-Cl-4-CF3)]P[Ac5c][NMeI][NMeD]-Morpholide; lactam N-11)
pIC50 [1]: 9.02 | pIC50 [2]: ≥ 7.70

CC[C@H](C)[C@@H]1NC(=O)[C@H](CC(C)C)N(C)C(=O)C[C@@H](C(=O)N2CCCC2)N(C)C(=O)[C@H](C2CCCC2)N(C)C(=O)C2(CCCC2)NC(=O)[C@@H]2CCCN2C(=O)[C@H](CCc2ccc(C(F)(F)F)c(F)c2)NC(=O)CN(C)C(=O)[C@H](CC2CCCCC2)N(C)C(=O)[C@@H]2CCN2C(=O)[C@H](C)N(C)C1=O [Compound 1091] ([NMeL]I[NMeA][Aze][NMeCha][Sar][hPhe(3-F,4-CF3)]P[Ac5c][NMeGly(cPent)][NMeD]-Pyrrolidide; lactam N-11)
pIC50 [1]: 9.00 | pIC50 [2]: ≥ 7.70

CC[C@H](C)[C@@H]1NC(=O)[C@H](CC(C)C)N(C)C(=O)C[C@@H](C)NC(=O)[C@H](CC(C)C)N(C)C(=O)C(C)(C)NC(=O)[C@H](COCC(C)(C)O)N(C)C(=O)[C@H](CCc2ccc(C(F)(F)F)c(Cl)c2)NC(=O)CN(C)C(=O)[C@H](COCCC(C)C)N(C)C(=O)CN(C)C(=O)CN(CC)C1=O [Compound 1519] (cyclo([Aib][NMeL][d(β3hA)][NMeL]I[NEtG][Sar][NMeS](Isopentyl)[Sar][hPhe(3-Cl-4-CF3)][NMeS](CH2CMe2OH)))
pIC50 [1]: 6.92 | pIC50 [2]: < 6.30

CC[C@H](C)[C@@H]1NC(=O)[C@H](CC(C)C)N(C)C(=O)C[C@@H](C(=O)N2CCCCC2)N(C)C(=O)[C@H](C2CCCC2)N(C)C(=O)C2(CCCC2)NC(=O)[C@@H]2CCCN2C(=O)[C@H](CCc2ccc(C(F)F)nc2)NC(=O)CN(C)C(=O)[C@H](CC2CCCCC2)N(C)C(=O)[C@@H]2CCN2C(=O)[C@H](C)N(C)C1=O [Compound 2060] ([NMeL]I[NMeA][Aze][NMeCha][Sar][X22]P[Ac5c][NMeGly(cPent)][NMeD]-Piperidide; lactam N-11 (inferred); C-terminus assumed)
pIC50 [1]: 6.96 | pIC50 [2]: < 6.30

CC[C@H](C)[C@@H]1NC(=O)[C@H](CC(C)C)N(C)C(=O)C[C@@H](C(=O)N2CCCCC2)N(C)C(=O)[C@H](C(C)C)N(C)C(=O)C2(CCCC2)NC(=O)[C@H](C)NC(=O)[C@H](CCc2ccc(C(F)(F)F)c(Cl)c2)NC(=O)CN(C)C(=O)[C@H](CC2CCCCC2)N(C)C(=O)CN(C)C(=O)CN(C)C1=O [Compound 156] ([NMeL]I[Sar][Sar][NMeCha][Sar][hPhe(3-Cl-4-CF3)]A[Ac5c][NMeV][NMeD]-Piperidide; lactam N-11)
pIC50 [1]: 9.01 | pIC50 [2]: < 6.30
